Test [1] concerns BSC-1 cells. The experiment in a line: Time of contact with cells required to commit them to accelerated growth (washout, count at four days). It is filed as cell-based, African green monkey.
The test system of test [2] is rats with mercuric chloride-induced acute renal failure. Description: Mercuric chloride-induced acute renal failure in rats: survival and renal function. In kind it is in vivo, rat. Conditions: for survival 7 days later: single dose s.c. 1 hour after mercuric chloride. An excerpt:
Nephrotoxic and ischemic acute renal failure (ARF) induced experimentally in rats have long been used to model this syndrome in humans. […] Male rats weighed 200-225 gm at the start of the experiment. This dose was used because preliminary experiments indicated it results in survival of 25-50% of the animals 7 days later. […] An increase in serum creatinine concentration signals a decline in renal function because the injured kidney is unable to excrete endogenous creatinine in the urine so it accumulates in the blood.
The synthetic peptide […] (14-Ser) (SEQ ID NO: 15) (dissolved in sterile 0.01% bovine serum albumin in phosphate-buffered saline) was injected subcutaneously into rats to determine its effect on survival, recovery of renal fucntion, and stimulation of DNA synthesis. Multiple different peptides were studied including 14-Ser, […] (14-mer) (SEQ ID NO: 39), […] (16-mer) (SEQ ID NO: 4) […] (11-mer) (SEQ ID NO: 6), and […] (11-mer) (SEQ ID NO: 41). Different concentrations and times of administration were tested and compared.
Acute tubular necrosis was induced in 44 rats by the subcutaneous (s.c.) injection of mercuric chloride, and a single dose of 14-ser was administered s.c. 1 hour afterwards. Different amounts of the peptide were given to assesses its capacity to affect the outcome. Survival 7 days later was about twice as high in animals given 100-150 μg of peptide (63%) than in rats given 0-75 μg peptide (29%).
To determine the effect of the peptide on survival and recovery of renal function, acute tubular necrosis was induced in 59 rats; 29 received 14-Ser (100 μg/rat) and 30 received an equal volume of the vehicle s.c. 1 hour after administration of mercuric chloride. Enhanced survival (top panel) and renal functional recovery (bottom panel) of rats give a WGF-derived peptide after mercuric chloride-induced acute tubular necrosis are shown in FIG. 2A and FIG. 2B. Mercuric chloride was injected subcutaneously into each of the 59 rats, and 1 hour later 100 μg of WGF peptide (14-Ser) (n=29 rats) or the vehicle […] was given. Survival was greater in rats given the peptide than in animals receiving the vehicle as early as day 3 after administration of mercuric chloride. Blood was obtained from the tail vein on the days indicated, and serum creatinine concentration was measured. […] On days 2, 3 and 4, the lower creatinine concentration in peptide-treated rats indicates accelerated recovery of kidney function.
Experimental ARF was induced in rats by subcutaneous injection of mercuric chloride. The synthetic peptide […] […] In one experiment a total of 17 rats were injected with a dose of mercuric chloride shown to induce ARF. The different amounts of the peptide (known to stimulate growth of kidney cells in culture) were injected into the animals to assess capacity to improve the outcome. […] In contrast, two of three rats given 100 micrograms of peptide were alive, as were five of six given 200 micrograms. In summary, none of eight rats (0%) given up to 50 micrograms of peptide survived, whereas seven of nine (78%) given 100-200 micrograms did. Thus, the 11-mer WGF peptide improves survival in nephrotoxic ARF.
[…] Four days later, 63% of rats given the 14-Ser peptide were alive compared to 25% of animals receiving the vehicle (chi squared, P-0.0499); 50% of rats receiving EGF were alive (chi squared, P=N.S.). On day 5, 50% of rats given EGF were alive, compared to 12.5% of animals given the vehicle (chi squared, P=0.0436). […] These observations indicate that the 14-Ser peptide and EGF given after renal injury are similar in their ability to improve survival from the ARF syndrome.

The subject of test [3] is kidneys of rats given mercuric chloride. Description: BrdU labeling of DNA synthesis in kidneys of rats given mercuric chloride. In kind it is in vivo, rat. Conditions: 14-Ser 100 μg 24 hours before mercuric chloride; 1 hour BrdU labeling 24 hours after. The protocol:
To determine if the beneficial effects of 14-Ser peptide on survival and renal function were the result of the mitogenic action of the peptide, DNA synthesis was measured in the kidneys of rats given mercuric chloride. 5-Bromo-2′-deoxyuridine (BrdU), a nonradioactive analog of thymidine that is incorporated into DNA was used to label nuclei. A monoclonal antibody to BrdU and diamidobenzidene staining were used to detect nuclei undergoing DNA synthesis in histological sections of renal tissue. BrdU was dissolved in 20% ethanol and was injected intra-peritoneally 23 hours after administration of mercuric chloride. One hour later the kidneys were quickly perfused with a warm solution of phosphate-buffered saline via an aortic catheter to eliminate red blood cells from the organ and maintain potency of the renal tubules. The capsule was removed from the kidneys which were the bisected longitudinally, and fixed in formalin for 4 hours, and then in 70% ethanol. Tissue sections were prepared and BrdU-labeled nuclei were detected as described above.
In the kidneys of a rats given mercuric chloride, extensive necrosis of tubular cells of the terminal portion (S3) of the proximal nephron was observed, as expected in this well-characterized model system. The extent of necrosis was somewhat variable from rat-to-rat but was always confined to the aglomerular cortex. […]

Test [4] has as its system rats with mercuric chloride-induced acute renal failure. Description: Mercuric chloride-induced acute renal failure in rats: survival and renal function. In kind it is in vivo, rat. Conditions: given 24 hours before mercuric chloride (EGF 20 μg, s.c.).

As to AQPYPQGNHEASYG, in test [1] (14-Ser 0.5 μg/ml), the “exposure time for half-maximal stimulation” value worked out at 1 min. Moreover, the “maximal growth stimulation after 2 minutes exposure” value in test [1] (14-Ser 0.5 μg/ml, count at four days) came out at 29%. Further, the “exposure time sufficient for maximal growth stimulation (commitment time)” value in test [1] (peptide then washed off, cells counted four days later) was determined as 2 min. In addition, the “survival 7 days later” value in test [2] (0-75 μg peptide) was 29%; in test [2] (100-150 μg of peptide), 63%. Further, the “recovery of renal function on days 3 and 4” value in test [2] (100 μg/rat s.c. 1 hour after mercuric chloride) is recorded as “significantly more rapid recovery”. The “serum creatinine concentration on day 2 compared to vehicle” value in test [2] (100 μg/rat s.c. 1 hour after mercuric chloride, P=0.034) is “significantly lower”. Besides, the “serum creatinine concentration on day 1” value in test [2] (100 μg/rat s.c. 1 hour after mercuric chloride, basal 0.5, similar with vehicle) is given as 2.3 mg/dL. Further, in test [2] (100 μg/rat s.c. 1 hour after mercuric chloride, chi squared P=0.035), the “survival compared to vehicle 3 days after onset of ARF” value is “significantly greater”. Moreover, the “survival by day 7” value in test [2] (100 μg/rat s.c. 1 hour after mercuric chloride, vehicle 20%) turned out to be 48%. Moreover, the “survival on day 6” value in test [2] (14-Ser 100 μg 1 hour after, EGF 20 μg 2 hours after mercuric chloride, vehicle 12%) came to 37.5%. Further, the “survival four days later” value in test [2] (14-Ser 100 μg s.c. 1 hour after, EGF 20 μg s.c. 2 hours after mercuric chloride 2.25 mg/kg, vehicle 25%) was determined as 63%. Also, in test [2] (given 24 hours before mercuric chloride, P=0.039), the “renal function (serum creatinine) on day 3 compared to vehicle” value is “significantly better”. For the same sequence, the “BrdU-labeled nuclei adjacent to the zone of tubular cell necrosis” value in test [3] is “many more labeled nuclei”. Besides, the “survival on day 4” value in test [4] (listed as 14-Ser) stood at 71%; in test [4] (listed as 14-Ser WGF-derived peptide) it was 73%.

Values taken from patent US7550438B2, “Methods for production of growth-promoting proteins and peptides for kidney epithelial cells” (The University of Chicago, priority 1997, dated 2009).
